The values that follow come from patent US10222381B2, “Water-soluble peptide fluorescence material” (NATIONAL CHIAO TUNG UNIVERSITY, priority 2015, dated 2019).

Residues, ends and D or L forms follow the SMILES beside them. *: point of attachment. Acetyl(1,8-naphthalimido) = O=C1c2cccc3cccc(c23)C(=O)N1CC(=O)*

A short description of data set [1]: Fluorescence in co-solvents of glycerol and methanol (aggregation-induced emission). The format is physicochemical. An excerpt:
Continuing in FIG. 6, which illustrates a fluorescence intensity and an emission wavelength of the water-soluble peptide fluorescence material of formula (III-14) in co-solvents having different proportions of glycerol and methanol. In Experimental Example 601, 602, 603, 604, 605, 606, 607, 608, 609 and 610, methanol respectively has 0, 10, 20, 30, 40, 50, 60, 70, 80 and 90% of a total volume of the co-solvent. […] Given the above, the fluorescence intensity of the water-soluble peptide fluorescence material of formula (III-14) is increased corresponding to the increase of the volume ratio of methanol, so the water-soluble peptide fluorescence material of formula (III-14) also has a phenomenon of aggregation-induced emission (AIE) in methanol. In addition, the water-soluble peptide fluorescence material of formula (III-14) has the emission wavelength of about 550 nm, so the observed fluorescence has a color of green.

Data set [2] can be described thus: Fluorescence in co-solvents of water and dimethyl sulfoxide (aggregation-induced emission). The format is physicochemical. An excerpt: Continuing in FIG. 4, which illustrates a fluorescence intensity and an emission wavelength of the water-soluble peptide fluorescence material of formula (III-1) in co-solvents having different proportions of water and dimethyl sulfoxide. In Experimental Example 401, 402, 403, 404, 405, 406, 407, 408, 409, 410 and 411, water respectively has 0, 10, 20, 30, 40, 50, 60, 70, 80, 90 and 100% of a total volume of the co-solvent. […] As such, no significant fluorescence marker is shown, so it is difficult to observe apparent fluorescence visually. […] Given the above, the fluorescence intensity of the water-soluble peptide fluorescence material of formula (III-1) is increased corresponding to the increase of the volume ratio of water, which is also referred as aggregation-induced emission (AIE). In addition, the water-soluble peptide fluorescence material of formula (III-1) has the emission wavelength of about 400 nm, so the observed fluorescence has a color of blue violet.
Continuing in FIG. 9, which illustrates a fluorescence intensity and an emission wavelength of the water-soluble peptide fluorescence material of formula (III-23) in co-solvents having different proportions of water and dimethyl sulfoxide. In Experimental Examples 901, 902, 903, 904, 905, 906, 907, 908, 909 and 910, water respectively has 0, 10, 20, 30, 40, 50, 60, 70, 80 and 90% of a total volume of the co-solvent. […] Given the above, the fluorescence intensity of the water-soluble peptide fluorescence material of formula (III-23) is increased corresponding to the increase of the volume ratio of water and has a phenomenon of aggregation-induced emission in water. In addition, the water-soluble peptide fluorescence material of formula (III-23) has the emission wavelength of about 550 nm, so the observed fluorescence has a color of green.
FIG. 12 illustrates a fluorescence intensity and an emission wavelength of the water-soluble peptide fluorescence material of formula (III-28) in co-solvents having different proportions of water and dimethyl sulfoxide. In Experimental Example 1201, 1202, 1203, 1204, 1205, 1206, 1207, 1208, 1209, 1210 and 1211, water respectively has 0, 10, 20, 30, 40, 50, 60, 70, 80, 90 and 99% of a total volume of the co-solvent. […] As such, no significant fluorescence marker is shown, so it is difficult to observe apparent fluorescence visually. […] Given the above, the fluorescence intensity of the water-soluble peptide fluorescence material of formula (III-28) is increased corresponding to the increase of the volume ratio of water and has a phenomenon of aggregation-induced emission in water. In addition, the water-soluble peptide fluorescence material of formula (III-28) has the emission wavelength of about 400 nm, so the observed fluorescence has a color of violet. FIG. 13 depicts a ratio of the fluorescence intensity between Experimental Examples 1202 to 1211 and Experimental Example 1201, at the emission wavelength of 400 nm.
FIG. 15 illustrates a fluorescence intensity and an emission wavelength of the water-soluble peptide fluorescence material of formula (III-30) in co-solvents having different proportions of water and dimethyl sulfoxide. In Experimental Example 1501, 1502, 1503, 1504, 1505, 1506, 1507, 1508, 1509, 1510 and 1511, water respectively has 0, 10, 20, 30, 40, 50, 60, 70, 80, 90 and 100% of a total volume of the co-solvent. […] As such, no significant fluorescence marker is shown, so it is difficult to observe apparent fluorescence visually. […] Accordingly, the fluorescence intensity of the water-soluble peptide fluorescence material of formula (III-30) is increased corresponding to the increase of the volume ratio of water and has a phenomenon of aggregation-induced emission in water. In addition, the water-soluble peptide fluorescence material of formula (III-30) has the emission wavelength of about 400 to 425 nm, so the observed fluorescence has a color of blue violet. […]

A short description of data set [3]: Fluorescence intensity and emission wavelength at different pH values. Type of data set: physicochemical. An excerpt:
In Experimental Examples 210, 220, 230, 240, 250, 260, 270 and 280, the above water-soluble peptide fluorescence material is respectively placed in environments having a pH value of 10, 9, 8, 7, 6, 5, 4 and 3 for testing. In Experimental Examples 210 to 230, the water-soluble peptide fluorescence material is respectively placed in environments having the pH value of 10, 9 and 8.
Continuing in FIG. 5, which illustrates a fluorescence intensity and an emission wavelength of the water-soluble peptide fluorescence material of formula (III-10) at different pH values. In Experimental Examples 510, 520, 530, 540, 550, 560, 570 and 580, the water-soluble peptide fluorescence material of formula (III-10) is respectively placed in environments having a pH value of 10, 9, 8, 7, 6, 5, 4 and 3 for testing. In Experimental Examples 510 to 560, the water-soluble peptide fluorescence material is placed in environments having the pH value of 10 to 5, and two emission peaks are shown in FIG. 5. […] Then, the pH value is further decrease to 4 (Experimental Example 570) and 3 (Experimental Example 580), and only the emission peak at about 400 nm is remained, so the observed fluorescence has a color of purple in Experimental Examples 570 and 580. Therefore, the water-soluble peptide fluorescence material of formula (III-10) is able to detect and mark locations of acidic cells by change of the color.
Continuing in FIG. 7, which illustrates a fluorescence intensity and an emission wavelength of the water-soluble peptide fluorescence material of formula (III-21) at different pH values. In Experimental Examples 710, 720, 730, 740, 750, 760, 770 and 780, the water-soluble peptide fluorescence material of formula (III-21) is respectively placed in environments having a pH value of 10, 9, 8, 7, 6, 5, 4 and 3 for testing. In Experimental Examples 710 to 750, the water-soluble peptide fluorescence material is placed in environments having the pH value of 10 to 6. […] However, the fluorescence intensity of Experimental Examples 780 is decreased when the pH value is decreased from 4 to 3.
Continuing in FIG. 8, which illustrates a fluorescence intensity and an emission wavelength of the water-soluble peptide fluorescence material of formula (III-22) at different pH values. In Experimental Examples 810, 820, 830, 840, 850, 860, 870 and 880, the water-soluble peptide fluorescence material of formula (III-22) is respectively placed in environments having a pH value of 10, 9, 8, 7, 6, 5, 4 and 3 for testing. In Experimental Examples 810 to 850, the water-soluble peptide fluorescence material is respectively placed in environments having the pH value of 10 to 6. […] In addition, the fluorescence intensity of Experimental Example 860 (pH=5) is 90 times of the fluorescence intensity of Experimental Example 810 […], which represents that the water-soluble peptide fluorescence material has obvious light-emitting interval and easily to identify and detect positions of the acidic cells.
FIG. 10 illustrates a fluorescence intensity and an emission wavelength of the water-soluble peptide fluorescence material of formula (III-23) at different pH values. In Experimental Examples 1010, 1020, 1030, 1040, 1050, 1060, 1070 and 1080, the water-soluble peptide fluorescence material of formula (III-23) is respectively placed in environments having a pH value of 10, 9, 8, 7, 6, 5, 4 and 3 for testing. In Experimental Examples 1010 to 1050, the water-soluble peptide fluorescence material is respectively placed in environments having the pH value of 10 to 6. […] The water-soluble peptide fluorescence material not only provides obvious marker, but also achieves the same effect of the fluorescence at a low concentration, and thereby reduces the costs.
FIG. 11 illustrates a fluorescence intensity and an emission wavelength of the water-soluble peptide fluorescence material of formula (III-27) at different pH values. […]

Data set [4] relates to acidic cells in living cells. Nature of the data set: Fluorescence marking of acidic cells in living cells, compared with Lysotracker. Type of data set: cell-based. The conditions noted are these: living cells, FIGS. 1A/1B. An excerpt: The water-soluble peptide fluorescence material is designed to illuminate in acid, neutral or weak base environment, and following embodiments give an example illuminating in acid environment. FIGS. 1A, 1B and 1C are comparative pictures between a water-soluble peptide fluorescence material of the present disclosure and a traditional fluorescence material at the same concentration. The water-soluble peptide fluorescence material has a structure of following formula including a peptide sequence Phe-Asp-Gly-Glu-Ala (SEQ ID NO: 5):
Continuing in FIG. 1B to compare with FIG. 1A, FIG. 1B uses the water-soluble peptide fluorescence material of the present disclosure, which is also used to mark acidic cells in living cells. […] Accordingly, the water-soluble peptide fluorescence material is suitable for a biological fluorescence probe, so as to detect and mark positions of the acidic cells.
At the same concentration, the water-soluble peptide fluorescence material has the greater fluorescence intensity than that of Lysotracker. On this base, a dose of the water-soluble peptide fluorescence material could be decreased to achieve the same fluorescence intensity with the Lysotracker, so as to decrease medical costs and damage to human bodies.

The mark [5] stands for this setting: water/dimethyl sulfoxide co-solvent.

Regarding `O=C(CN1C(=O)c2cccc3c(N4CCCCC4)ccc(c23)C1=O)NC(Cc1ccccc1)C(=O)NC(Cc1ccccc1)C(=O)O` (centres unmarked) [III-14], the “fluorescence intensity with increase of the volume ratio of methanol” value in data set [1] (aggregation-induced emission) is listed as “increased”. Moreover, in data set [1] (glycerol/methanol co-solvent), the “color of observed fluorescence” value was “green” and the emission wavelength entry is given as “about 550 nm”. The fluorescence intensity entry in data set [1] (methanol 90% (Experimental Example 610), methanol 0 to 90% tested) was “largest fluorescence intensity”.
With `C[C@H](NC(=O)[C@H](CCC(=O)O)NC(=O)CNC(=O)[C@H](CC(=O)O)NC(=O)[C@H](Cc1ccccc1)NC(=O)CN1C(=O)c2cccc3cccc(c23)C1=O)C(=O)O` [III-28] ({Acetyl(1,8-naphthalimido)}-FDGEA-OH), the “fluorescence intensity with increase of the volume ratio of water” value in data set [2] (aggregation-induced emission) was “increased”. Moreover, in data set [2] (emission wavelength of 400 nm), the “ratio of fluorescence intensity Experimental Example 1211 (99% water) to 1201 (0% water)” value is 225 times. The fluorescence intensity result is “low fluorescence intensity” in data set [2] (water 0 to 80%), 150 fluorescent units in data set [2] (water 90%), “about 110 fluorescent units” in data set [2] (water 99%) and “low fluorescence intensities” in data set [3] (pH 10 to 6). Moreover, the “color of observed fluorescence” value in data set [2] (setting [5]) is “violet”. Moreover, in data set [2] (setting [5]), the emission wavelength result is listed as “about 400 nm”. In data set [3] (pH 5), the color of fluorescence entry was “purple”. Also, the emission peak result in data set [3] (pH 5) is listed as “about 400 nm”. Moreover, the “change of fluorescence intensity” value in data set [3] (pH decreased to 4 and 3) is “significantly increased”; in data set [3] (pH decreased to 5), “significantly increased”.
Take `CN(C)CCNC(=O)CCc1ccc2n1[B-](F)(F)[N+]1=C(c3ccc[nH]3)C=CC1=C2` [Lysotracker, reference compound]: the “fluorescence appearing at the acidic cells” value in data set [4] is given as “red fluorescence”.
